The test system of data set [1] is Fusarium culmorum. The experiment in a line: microbe, parasite or virus in culture. The class given is cell-based. The note with it: 72 h, read-out: disease control.
The subject of data set [2] is Magnaporthe grisea (Pyricularia oryzae). The experiment in a line: microbe, parasite or virus in culture. The class given is cell-based. The note with it: 72 h, read-out: control of Magnaporthe grisea.
Data set [3] relates to Monographella nivalis (Microdochium nivale). Description: Monographella nivalis (Microdochium nivale) / liquid culture (foot rot cereals). It is filed as cell-based. The note with it: 96 h, growth inhibition determined photometrically 4-5 days after application, vs untreated control, read-out: disease control.
Data set [4] deals with Sclerotinia sclerotiorum. Description: Sclerotinia sclerotiorum / liquid culture (cottony rot). The note with it: 72 h, read-out: control of Sclerotinia sclerotiorum.
Description: Sclerotinia sclerotiorum/Liquid Culture (Cottony Rot)
Mycelia fragments of a newly grown liquid culture of the fungus are directly mixed into nutrient broth (Vogels broth). After placing a (DMSO) solution of test compound into a microtiter plate (96-well format) the nutrient broth containing the fungal material is added. The test plates are incubated at 24° C. and the inhibition of growth is determined photometrically 3-4 days after application.
Data set [5] has as its system Glomerella lagenarium (Colletotrichum lagenarium). The experiment in a line: Glomerella lagenarium (Colletotrichum lagenarium) / liquid culture (anthracnose). The class given is cell-based. To be noted: Colletotrichum orbiculare, growth inhibition measured photometrically 3-4 days after application, vs untreated control, read-out: disease control.
In data set [6] the test system is Pyrenophora teres. The experiment in a line: Pyrenophora teres / liquid culture (net blotch). It is filed as cell-based. To be noted: growth inhibition determined photometrically 3-4 days after application, vs untreated control.
Data set [7] concerns Botryotinia fuckeliana (Botrytis cinerea). The experiment in a line: Botryotinia fuckeliana (Botrytis cinerea) / liquid culture (gray mould). It is filed as cell-based. To be noted: growth inhibition determined photometrically 3-4 days after application, vs untreated control, read-out: disease control.
The test system of data set [8] is Gaeumannomyces graminis. The experiment in a line: Gaeumannomyces graminis / liquid culture (take-all of cereals). The class given is cell-based. To be noted: growth inhibition determined photometrically 4-5 days after application, vs untreated control, read-out: disease control.

Among the data in US10273221B2, “Microbiocidal heterobicyclic derivatives” (Syngenta Participations AG, priority 2015, dated 2019) are inhibition of growth and melting point values, retold here.

Where only a bound is given, the exact number is not on record here.

What is called melting point is the temperature, or range, at which the solid turns liquid. Regarding `Cc1ccc2c(ncn2C2=NC(C)(C)C(=O)c3ccccc32)c1C` [E-25], the melting point lay within 159 to 161 °C. For the same compound, the inhibition of growth at 200 ppm in data set [1] was at least 80%. Moreover, the inhibition of growth at 20 ppm in data set [2] was at least 80%. Further, the inhibition of growth at 200 ppm in data set [3] was at least 80%. Besides, the inhibition of growth at 20 ppm in [4] was at least 80%. The inhibition of growth at 200 ppm in data set [5] is at least 80%. Moreover, the inhibition of growth at 20 ppm in data set [6] was at least 80%. Besides, the inhibition of growth at 200 ppm in data set [7] is at least 80%.
In turn, `CC1(C)N=C(n2cnc3c(Cl)cccc32)c2ccc(Cl)cc2C1(F)F` [E-37] gave a melting point of 197 to 200 °C. Besides, in data set [2], the inhibition of growth at 20 ppm is at least 80%. For the same compound, the inhibition of growth at 200 ppm in data set [8] was at least 80%. The inhibition of growth at 200 ppm in data set [3] is at least 80%. Further, the inhibition of growth at 20 ppm in [4] was at least 80%. The inhibition of growth at 200 ppm in [7] was at least 80%.
As for `Cc1cccc2c1ncn2C1=NC(C)(C)C(F)(F)c2c(F)cccc21` [E-20], the inhibition of growth at 200 ppm in data set [1], in [3], in [5] and in [7] was at least 80% in each case. Further, the inhibition of growth at 20 ppm in data set [2], in [4] and in data set [6] was at least 80% each time.
Take `Cc1cccc2c1ncn2C1=NC(C)(C)C(=O)c2ccccc21` [E-10]: the melting point lay within 123 to 125 °C. Besides, the inhibition of growth at 20 ppm in data set [2] is at least 80%. In [3], the inhibition of growth at 200 ppm was at least 80%. Also, in [5], the inhibition of growth at 200 ppm was at least 80%. In data set [6], the inhibition of growth at 20 ppm was at least 80%. In data set [7], the inhibition of growth at 200 ppm is at least 80%.
With `Cc1c(Br)ccc2c1ncn2C1=NC(C)(C)C(C)(C)c2c(F)cccc21` [E-41], the melting point lay in the range of 122 to 124 °C. Besides, the inhibition of growth at 200 ppm in [1] is at least 80%. For the same compound, the inhibition of growth at 20 ppm in data set [2] was at least 80%. For the same compound, in data set [8], the inhibition of growth at 200 ppm was at least 80%. Moreover, in [3], the inhibition of growth at 200 ppm is at least 80%. In addition, the inhibition of growth at 20 ppm in data set [4] was at least 80%. Besides, in [5], the inhibition of growth at 200 ppm is at least 80%. Also, in [7], the inhibition of growth at 200 ppm was at least 80%.
For `Cc1ccc2c(ncn2C2=NC3(CC3)C3(CC3)c3ccccc32)c1C` [E-58], the melting point lay in the range of 141 to 143 °C. For the same compound, in data set [1], the inhibition of growth at 200 ppm is at least 80%. In addition, the inhibition of growth at 20 ppm in data set [2] was at least 80%. Also, in data set [8], the inhibition of growth at 200 ppm was at least 80%. Also, in data set [3], the inhibition of growth at 200 ppm was at least 80%. For the same compound, the inhibition of growth at 20 ppm in data set [4] is at least 80%. In data set [5], the inhibition of growth at 200 ppm is at least 80%. For the same compound, the inhibition of growth at 200 ppm in data set [7] was at least 80%.
Turning to `C=Cc1cccc2c1ncn2C1=NC(C)(C)C(C)(C)c2c(F)cccc21` [E-13], the melting point was 70 to 71 °C. The inhibition of growth at 20 ppm in data set [2] was at least 80%. In addition, the inhibition of growth at 200 ppm in data set [3] is at least 80%. Further, in data set [5], the inhibition of growth at 200 ppm is at least 80%. Besides, the inhibition of growth at 20 ppm in data set [6] was at least 80%. In data set [7], the inhibition of growth at 200 ppm is at least 80%.
With `CC(C)c1cccc2c1ncn2C1=NC(C)(C)C(C)(C)c2c(F)cccc21` [E-12], the melting point lay in the range of 113 to 114 °C. For the same compound, in data set [2], the inhibition of growth at 20 ppm was at least 80%. Also, the inhibition of growth at 200 ppm in [3] is at least 80%. The inhibition of growth at 200 ppm in [5] is at least 80%. This compound registered an inhibition of growth at 20 ppm in data set [6] of at least 80%. Besides, the inhibition of growth at 200 ppm in [7] is at least 80%.
`Cc1cccc2c1C(=O)C(C)(C)N=C2n1cnc2c(C)cccc21` [E-26] displayed a melting point of 96 to 101 °C. For the same compound, in [1], the inhibition of growth at 200 ppm was at least 80%. Also, the inhibition of growth at 20 ppm in data set [2] was at least 80%. Besides, in data set [3], the inhibition of growth at 200 ppm was at least 80%. Moreover, the inhibition of growth at 20 ppm in [4] was at least 80%. Further, in data set [5], the inhibition of growth at 200 ppm is at least 80%. In data set [6], this compound yielded an inhibition of growth at 20 ppm of at least 80%. Besides, in data set [7], the inhibition of growth at 200 ppm was at least 80%.
On to `Cc1ccc2c(ncn2C2=NC(C)(C)C(F)(F)c3ccccc32)c1C` [E-23], for which the inhibition of growth at 200 ppm in data set [1], in data set [8], in data set [3], in data set [5] and in [7] was at least 80% each time. Besides, the inhibition of growth at 20 ppm in data set [2], in data set [4] and in data set [6] was at least 80% in each case.
With `CC1(C)N=C(n2cnc3c(C(F)(F)F)cccc32)c2cccc(F)c2C1(C)C` [E-5], the inhibition of growth at 20 ppm in data set [2] and in data set [6] was at least 80% throughout. Moreover, the inhibition of growth at 200 ppm in data set [3], in data set [5] and in [7] was at least 80% throughout.
Turning to `CC1(C)N=C(n2cnc3c(F)cccc32)c2cccc(F)c2C1(C)C` [E-7], the inhibition of growth at 200 ppm in data set [1], in [8], in [3], in data set [5] and in data set [7] was at least 80% throughout. Moreover, the inhibition of growth at 20 ppm in data set [2] and in [6] was at least 80% throughout.
With `Cc1cccc2c1ncn2C1=NC(C)(C)C(F)(F)c2ccccc21` [E-15], the inhibition of growth at 200 ppm in data set [1], in data set [8], in data set [3], in data set [5] and in data set [7] was at least 80% in each case. Also, the inhibition of growth at 20 ppm in data set [2], in data set [4] and in data set [6] was at least 80% in each case.
On to `COc1cccc2c1ncn2C1=NC(C)(C)C(C)(C)c2c(F)cccc21` [E-6], for which the inhibition of growth at 20 ppm in [2] and in [6] was at least 80% in each case. Besides, the inhibition of growth at 200 ppm in [3], in data set [5] and in data set [7] was at least 80% in each case.
As for `Cc1cccc2c1C(=O)C(C)(C)N=C2n1cnc2c(C)c(C)ccc21` [E-27], the melting point was 145 to 149 °C. Also, the inhibition of growth at 200 ppm in data set [1] was at least 80%. The inhibition of growth at 20 ppm in data set [2] is at least 80%. The inhibition of growth at 200 ppm in [3] was at least 80%. Moreover, the inhibition of growth at 20 ppm in data set [4] was at least 80%. Further, in data set [5], the inhibition of growth at 200 ppm was at least 80%. In [6], the inhibition of growth at 20 ppm is at least 80%. The inhibition of growth at 200 ppm in data set [7] is at least 80%.
As to `C=C(C)c1cccc2c1ncn2C1=NC(C)(C)C(C)(C)c2c(F)cccc21` [E-11], the inhibition of growth at 20 ppm in data set [2] and in [6] was at least 80% throughout. Further, the inhibition of growth at 200 ppm in data set [3], in data set [5] and in data set [7] was at least 80% each time.
Turning to `Cc1cccc2c1ncn2C1=NC(C)(C)C2(CC2)c2ccccc21` [E-9], the inhibition of growth at 200 ppm in [1], in data set [8], in [3], in [5] and in data set [7] was at least 80% each time. Also, the inhibition of growth at 20 ppm in [2] and in data set [6] was at least 80% in each case.
